Consider 2 compounds from patent US20250073292A1, “PELARGONIUM GRAVEOLENS EXTRACT FOR THE TREATMENT OF TRAUMATIC BRAIN INJURIES” (priority 2021, published 2025).

SMILES strings stand for the structures.

In test [1] the test system is mice subjected to closed head injury (CHI). Nature of the test: Barnes maze (BM) acquisition, recall and exploration strategies after CHI. In kind it is in vivo. The settings on record: 2 weeks after the trauma, 3 days after the last treatment; 125 mg/kg or 50 mg/kg (both doses), gavage, 9 treatments. The protocol:
At 1 h after CHI, the NSS is evaluated.
• The BM test is based on the instinct of the mouse to hide when exposed to environmental disturbances and is used to test spatial learning and memory. The maze consists of an elevated circular platform with holes in the perimeter and a small dark hidden goal box. Bright light and aversive noise (85 dB) force the animals to escape from the open platform surface to find the hole under which the dark chamber (21×22×21 cm), “target goal box,” is located. Visual cues of different colors and shapes are placed around the room. The mouse was placed under a cylindrical black start chamber at the center of the maze. […] For the probe trial, the latency to reaching the escape box first are recorded. • The Barnes maze test was performed: • 1) Between days 14-17 (2 weeks) plus a recall test on days 18 and 25 after injury, for a total round of 6. • 2) Between days 54-57 (2 months) plus a recall test on days 58 and 65 after injury for a total round of 2. • 3) Between days 183-186 (6 months) plus a recall test on days 187 and 194 after injury for a total round of 2. • 4) Between days 277-280 (9 months) plus a recall test on days 281 and 288 after injury for a total round of 1. • The captured videos were analyzed with Ethovision XP10 software (Noldus, The Netherlands) for later evaluation of the strategies used to locate the target box. […]

The next test deals with acetyl choline esterase (Homo sapiens, UniProt P22303). The settings on record: WO 2013/168090 [10]; cited from earlier work.
acetyl choline esterase, sequence (P22303 32-614): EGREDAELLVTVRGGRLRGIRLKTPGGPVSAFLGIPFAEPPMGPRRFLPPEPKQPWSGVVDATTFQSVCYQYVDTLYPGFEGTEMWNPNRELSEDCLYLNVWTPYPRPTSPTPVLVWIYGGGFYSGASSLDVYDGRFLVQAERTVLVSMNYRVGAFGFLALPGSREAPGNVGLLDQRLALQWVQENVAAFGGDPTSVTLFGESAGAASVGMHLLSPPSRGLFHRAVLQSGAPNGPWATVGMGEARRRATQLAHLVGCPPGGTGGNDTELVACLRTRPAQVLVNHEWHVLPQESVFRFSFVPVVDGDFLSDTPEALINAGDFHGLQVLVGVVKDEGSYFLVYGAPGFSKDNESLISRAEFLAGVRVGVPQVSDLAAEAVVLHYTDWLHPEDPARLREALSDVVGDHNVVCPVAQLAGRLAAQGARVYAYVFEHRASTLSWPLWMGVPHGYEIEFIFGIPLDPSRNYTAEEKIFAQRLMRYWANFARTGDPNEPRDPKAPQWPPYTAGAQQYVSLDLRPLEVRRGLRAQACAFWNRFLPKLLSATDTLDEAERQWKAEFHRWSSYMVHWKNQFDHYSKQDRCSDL

With `CC(C)=CCCC(C)CCO` (centres unmarked) [Citronellol, citronellol], the “Barnes maze acquisition, learning curve” value in test [1] is on record as “A significant improvement in the learning curve”.
Regarding `CC(C)=CCC[C@H](C)CCO` [(S) (−) citronellol], the “Activity of the enzyme acetyl choline esterase in vitro” value at acetyl choline esterase is “inhibits”.
